Data reported in patent publication US20240358693A1, “METHODS OF TREATING PAIN” (Aisa Pharma, Inc., priority 2023, published 2024).

System: participants with SSc-RP
Assay: Scleroderma Health Assessment Questionnaire (SHAQ): disability indices and visual analog scales
Type: in vivo, human
Description: The standard, validated, patient reported outcome measures tool for SSc patients, the Scleroderma Health Assessment Questionnaire (SHAQ), will be used to assess the participant qualify of life. Details are attached in the Appendix. The participant quality of life will be scored, and a disability index calculated for each questionnaire completed by the patient at Screening and each in-clinic visit. The absolute change in participant quality of life from baseline to the end of each dosing period will be calculated similar to frequency data as before.
The SHAQ includes a Raynaud's VAS, which will be reported at screening and each in-clinic visit. The absolute change in Raynaud-VAS, assessed by the participants response to the SHAQ question ‘In the past 7 days, how much have your Raynaud's interfered with your daily activities?’ at baseline and the end of each dosing period will be calculated similar to frequency data as before.
The SHAQ is used to calculate a Disability Index to assess the participant qualify of life. The eight categories assessed by the Disability Index are 1) dressing and grooming, 2) arising, 3) eating, 4) walking, 5) hygiene, 6) reach, 7) grip, and 8) common daily activities. For each of these categories, patients report the amount of difficulty they have in performing two or three specific activities.
There are four possible responses for the Disability Index questions: • Without any difficulty=0 • With some difficulty=1 • With much difficulty=2 • Unable to do=3. • The highest score reported by the patient for any component question of the eight categories determines the score for that category. • If a component question is left blank or the response is too ambiguous to assign a score, then the score for that category is determined by the remaining completed question(s). • If all component questions are blank or if more than one answer is given, then follow up with the respondent is required. • If the respondent's mark is between the response columns, then move it to the closest one. If it's directly between the two, move it to the higher one.
Each of the disability items on the SHAQ has a companion aids/devices variable that is used to record what type(s) of assistance, if any, the participant uses for his/her usual activities. These variables (see below) are coded as follows: • 0=No assistance is needed. • 1=A special device is used by the patient in his/her usual activities. • 2=The patient usually needs help from another person. • 3=The patient usually needs BOTH a special device AND help from another person.
The scoring variables and scoring rules permit the computation of two disability indices, the Standard Disability Index and the Alternative Disability Index.
This question results in a new set of category scores that are computed by adjusting the score for each category, if necessary, based on the patient's use of an aid or device or assistance for that category. If either devices and/or help from another person are checked for a category, the score is set to “2”, unless the score is already “3” (i.e., scores of “0” or “1” are increased to “2”). For example, if the highest score for the dressing category is “1”, and the patient says they use a device for dressing, the computed category score would be “2”. The sum of the computed categories scores is then calculated and divided by the number of categories answered. This gives a score in the 0 to 3 range.
The aid and device variables are not used to calculate the alternative disability index; it is calculated by adding the scores for each of the categories and dividing by the number of categories answered. This gives a score in the 0 to 3 range.
The standard, validated, patient reported outcome measures tool for SSc patients, the SHAQ, was collected at the time points specified in the study schedules (FIG. 2 and FIGS. 4A and 4B) to assess the participant's quality of life. The SHAQ included a Raynaud's VAS that will also be reported separately.

[1] = Baseline, Cilnidipine 20 mg (N = 4), Patients with Diagnosis of SSc, PP Population Part A
[2] = Baseline, Pooled Cilnidipine 10 mg and Cilnidipine 10 mg + Tadalafil 5 mg (N = 9), PP Population Part A
[3] = Baseline, Pooled Cilnidipine 20 mg and Cilnidipine 20 mg + Tadalafil 5 mg (N = 8), PP Population Part A
[4] = Baseline, Pooled Cilnidipine (N = 8), PP Population Part A
[5] = Cilnidipine 10 mg (N = 3), patients with diagnosis of SSc, sensitivity analysis, Modified ITT, Part A
[6] = Cilnidipine 10 mg (N = 4), Modified ITT, Part A
[7] = Cilnidipine 10 mg, Day 12, PP Population Part A, SSc patients

Compound: COCCOC(=O)C1=C(C)NC(C)=C(C(=O)OC/C=C/c2ccccc2)C1c1cccc([N+](=O)[O-])c1 (stereo not shown) [Cilnidipine, cilnidipine]
- SHAQ Standard Disability Index, Median (Baseline, Cilnidipine 10 mg (N = 4), Patients with Diagnosis of SSc, PP Population Part A): 0.563
- SHAQ Alternative Disability Index, Mean [1]: 0.219
- SHAQ Alternative Disability Index, Median [1]: 0.250
- SHAQ Standard Disability Index, Mean [1]: 0.344
- SHAQ Standard Disability Index, Median [1]: 0.375
- SHAQ Visual Analogue Scale - Breathing Problems, Mean [2]: 1.511
- SHAQ Visual Analogue Scale - Breathing Problems, Median [2]: 0.800
- SHAQ Visual Analogue Scale - Finger Ulcers, Mean [2]: 0.656
- SHAQ Visual Analogue Scale - Finger Ulcers, Median [2]: 0.200
- SHAQ Visual Analogue Scale - Intestinal Problems, Mean [2]: 2.444
- SHAQ Visual Analogue Scale - Intestinal Problems, Median [2]: 1.100
- SHAQ Visual Analogue Scale - Overall Disease Severity, Mean [2]: 3.044
- SHAQ Visual Analogue Scale - Overall Disease Severity, Median [2]: 1.900
- SHAQ Visual Analogue Scale - Pain, Mean [2]: 3.278
- SHAQ Visual Analogue Scale - Pain, Median [2]: 3.100
- SHAQ Visual Analogue Scale - Raynaud's, Mean [2]: 2.733
- SHAQ Visual Analogue Scale - Raynaud's, Median [2]: 1.400
- SHAQ Visual Analogue Scale - Breathing Problems, Mean [3]: 1.175
- SHAQ Visual Analogue Scale - Breathing Problems, Median [3]: 1.000
- SHAQ Visual Analogue Scale - Finger Ulcers, Mean [3]: 1.986
- SHAQ Visual Analogue Scale - Finger Ulcers, Median [3]: 0.100
- SHAQ Visual Analogue Scale - Intestinal Problems, Mean [3]: 0.813
- SHAQ Visual Analogue Scale - Intestinal Problems, Median [3]: 0.650
- SHAQ Visual Analogue Scale - Overall Disease Severity, Mean [3]: 3.363
- SHAQ Visual Analogue Scale - Overall Disease Severity, Median [3]: 2.950
- SHAQ Visual Analogue Scale - Pain, Mean [3]: 2.800
- SHAQ Visual Analogue Scale - Pain, Median [3]: 2.900
- SHAQ Visual Analogue Scale - Raynaud's, Mean [3]: 2.700
- SHAQ Visual Analogue Scale - Raynaud's, Median [3]: 1.700
- SHAQ Visual Analogue Scale - Breathing Problems, Mean [4]: 1.600
- SHAQ Visual Analogue Scale - Breathing Problems, Median [4]: 0.700
- SHAQ Visual Analogue Scale - Finger Ulcers, Mean [4]: 1.171
- SHAQ Visual Analogue Scale - Finger Ulcers, Median [4]: 0.300
- SHAQ Visual Analogue Scale - Intestinal Problems, Mean [4]: 1.838
- SHAQ Visual Analogue Scale - Intestinal Problems, Median [4]: 0.650
- SHAQ Visual Analogue Scale - Overall Disease Severity, Mean [4]: 2.925
- SHAQ Visual Analogue Scale - Overall Disease Severity, Median [4]: 2.950
- SHAQ Visual Analogue Scale - Pain, Mean [4]: 2.250
- SHAQ Visual Analogue Scale - Pain, Median [4]: 2.150
- SHAQ Visual Analogue Scale - Raynaud's, Mean [4]: 2.338
- SHAQ Visual Analogue Scale - Raynaud's, Median [4]: 1.800
- SHAQ Standard Disability Index: Baseline, Mean [5]: 0.875
- SHAQ Standard Disability Index: Baseline, Median [5]: 1.125
- SHAQ Standard Disability Index: Change from Baseline, Mean [5]: 0.000
- SHAQ Standard Disability Index: Change from Baseline, Median [5]: 0.000
- SHAQ Standard Disability Index: Day 12, Mean [5]: 0.875
- SHAQ Standard Disability Index: Day 12, Median [5]: 1.125
- SHAQ Standard Disability Index: Percent Change from Baseline, Mean [5]: 0.00%
- SHAQ Standard Disability Index: Percent Change from Baseline, Median [5]: 0.00%
- SHAQ Overall Severity: Baseline, Mean [6]: 2.725
- SHAQ Overall Severity: Baseline, Median [6]: 1.900
- SHAQ Overall Severity: Change from Baseline, Mean [6]: −0.900
- SHAQ Overall Severity: Change from Baseline, Median [6]: −0.950
- SHAQ Overall Severity: Day 12, Mean [6]: 1.825
- SHAQ Overall Severity: Day 12, Median [6]: 1.050
- SHAQ Overall Severity: Percent Change from Baseline, Mean [6]: −56.96%
- SHAQ Overall Severity: Percent Change from Baseline, Median [6]: −44.12%
- SHAQ Visual Analogue Scale - Breathing Problems, Change from Baseline, Mean [7]: −0.300
- SHAQ Visual Analogue Scale - Breathing Problems, Change from Baseline, Median [7]: 0.000
- SHAQ Visual Analogue Scale - Breathing Problems, Percent Change from Baseline, Mean [7]: −16.00%
- SHAQ Visual Analogue Scale - Breathing Problems, Percent Change from Baseline, Median [7]: −16.00%
